Columns and labels:
human recombinant HDAC1 = target: T1, human recombinant HDAC1 (Homo sapiens, UniProt Q13547); test: HDAC1 enzyme activity inhibition assay (in vitro, fluorimetric); assay type: biochemical; conditions: human recombinant HDAC1, fluorimetric kit, 30° C. 60 minutes
T1 construct: purchased Enzo Life Science BML-SE456
Procedure, shortened: (§1)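 Human recombinant enzyme (0.3 μg for HDAC1) reacted with 10 μM Fluor de Lys-SIRT1 substrate and 5-fold compound dilutions at 30 °C for 60 min, then developer for 30 min. Fluorescence read at Ex 360/Em 460; IC50 calculated. HDAC6 run by the same protocol.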

human recombinant HDAC6 = target: T2, human recombinant HDAC6 (Homo sapiens, UniProt Q9UBN7); test: HDAC6 enzyme activity inhibition assay (in vitro, fluorimetric); assay type: biochemical; conditions: for HDAC6 selectivity (fold): HDAC6 selectivity over HDAC1; for IC50: human recombinant HDAC6, fluorimetric kit, same protocol as HDAC1
T2 construct: purchased Calbiochem 382180
T2 sequence (Q9UBN7 1-1215): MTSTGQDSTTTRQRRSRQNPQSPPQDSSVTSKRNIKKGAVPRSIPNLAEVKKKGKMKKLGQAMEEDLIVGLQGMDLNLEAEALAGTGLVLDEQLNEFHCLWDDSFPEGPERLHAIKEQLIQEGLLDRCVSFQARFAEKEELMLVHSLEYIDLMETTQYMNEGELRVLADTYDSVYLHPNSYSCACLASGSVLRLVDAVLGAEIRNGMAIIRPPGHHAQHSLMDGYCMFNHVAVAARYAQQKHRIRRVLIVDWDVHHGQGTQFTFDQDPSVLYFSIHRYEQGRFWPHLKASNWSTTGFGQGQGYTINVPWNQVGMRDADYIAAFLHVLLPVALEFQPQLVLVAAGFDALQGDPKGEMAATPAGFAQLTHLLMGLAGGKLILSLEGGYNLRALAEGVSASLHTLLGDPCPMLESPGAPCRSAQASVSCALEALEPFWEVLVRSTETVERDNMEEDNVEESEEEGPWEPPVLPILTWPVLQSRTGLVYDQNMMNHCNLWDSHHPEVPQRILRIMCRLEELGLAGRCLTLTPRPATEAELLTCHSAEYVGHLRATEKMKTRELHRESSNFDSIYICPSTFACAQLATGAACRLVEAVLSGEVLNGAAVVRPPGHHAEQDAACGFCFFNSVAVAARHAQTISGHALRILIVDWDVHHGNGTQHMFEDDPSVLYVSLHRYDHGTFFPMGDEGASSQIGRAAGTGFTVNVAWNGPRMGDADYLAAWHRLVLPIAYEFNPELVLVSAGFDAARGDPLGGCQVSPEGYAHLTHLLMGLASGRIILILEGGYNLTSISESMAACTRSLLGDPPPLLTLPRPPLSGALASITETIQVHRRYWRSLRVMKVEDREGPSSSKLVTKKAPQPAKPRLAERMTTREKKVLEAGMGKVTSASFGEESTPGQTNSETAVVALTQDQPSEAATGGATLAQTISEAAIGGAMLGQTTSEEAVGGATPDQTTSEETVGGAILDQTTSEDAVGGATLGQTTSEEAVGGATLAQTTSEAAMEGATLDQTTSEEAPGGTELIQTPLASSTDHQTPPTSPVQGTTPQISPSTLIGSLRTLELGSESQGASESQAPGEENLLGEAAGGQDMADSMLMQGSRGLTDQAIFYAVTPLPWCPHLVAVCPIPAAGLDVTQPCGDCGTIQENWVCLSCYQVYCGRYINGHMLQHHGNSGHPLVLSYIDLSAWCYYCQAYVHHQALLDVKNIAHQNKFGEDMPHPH
Procedure, shortened: as §1

T1 sequence (Q13547 whole entry): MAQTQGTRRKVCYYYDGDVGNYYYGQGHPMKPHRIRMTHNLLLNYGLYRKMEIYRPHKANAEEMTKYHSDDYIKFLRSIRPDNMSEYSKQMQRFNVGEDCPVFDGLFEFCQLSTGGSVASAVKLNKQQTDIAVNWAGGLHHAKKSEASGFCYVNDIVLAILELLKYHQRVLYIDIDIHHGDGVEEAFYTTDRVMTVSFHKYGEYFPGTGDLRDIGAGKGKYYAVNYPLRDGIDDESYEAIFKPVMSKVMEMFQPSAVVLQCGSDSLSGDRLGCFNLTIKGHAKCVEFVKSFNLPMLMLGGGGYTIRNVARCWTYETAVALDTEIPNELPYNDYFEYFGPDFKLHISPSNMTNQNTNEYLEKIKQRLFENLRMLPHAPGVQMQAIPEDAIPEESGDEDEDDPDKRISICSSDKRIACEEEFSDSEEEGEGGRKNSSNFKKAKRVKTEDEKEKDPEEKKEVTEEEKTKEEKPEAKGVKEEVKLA

SMILES	IC50 (human recombinant HDAC1) [µM]	HDAC6 selectivity (fold) (human recombinant HDAC6)	IC50 (human recombinant HDAC6) [nM]
C[C@@H]1CN(Cc2ccc(C(=O)NO)cc2)C[C@H](C)N1C(=O)Cc1cccc(Cl)c1 [Compound 224, 4-(((3R,5S)-4-(2-(3-chlorophenyl)acetyl)-3,5-dimethylpiperazin-1-yl)methyl)-N-hydroxybenzamide]	1.7	14	120
C[C@@H]1CN(Cc2ccc(C(=O)NO)cc2)C[C@H](C)N1Cc1cccc(F)c1 [Compound 225, 4-(((3R,5S)-4-(3-fluorobenzyl)-3,5-dimethylpiperazin-1-yl)methyl)-N-hydroxybenzamide]	1.9	36	52
COc1cccc(CNC(=O)N2C[C@@H](C)N(Cc3ccc(C(=O)NO)cc3)[C@@H](C)C2)c1 [Compound 230, (3R,5S)-4-(4-(hydroxycarbamoyl)benzyl)-N-(3-methoxybenzyl)-3,5-dimethylpiperazine-1-carboxamide]	2.4	3	687
C[C@@H]1CN(C(=O)NCc2cccc(F)c2)C[C@H](C)N1Cc1ccc(C(=O)NO)cc1 [Compound 231, (3R,5S)-N-(3-fluorobenzyl)-4-(4-(hydroxycarbamoyl)benzyl)-3,5-dimethylpiperazine-1-carboxamide]	1.5	2	763
C[C@@H]1CN(Cc2ccc(C(=O)NO)cc2)C[C@H](C)N1C(=O)NCc1cccc(F)c1 [Compound 232, (2S,6R)-N-(3-fluorobenzyl)-4-(4-(hydroxycarbamoyl)benzyl)-2,6-dimethylpiperazine-1-carboxamide]	7.9	28	286
C[C@@H]1CN(C(=O)Cc2cccc(Cl)c2)C[C@H](C)N1Cc1ccc(C(=O)NO)cc1 [Compound 233, 4-(((2S,6R)-4-(2-(3-chlorophenyl)acetyl)-2,6-dimethylpiperazin-1-yl)methyl)-N-hydroxybenzamide]	16.9	11	1480
C[C@@H]1CN(Cc2ccc(C(=O)NO)cc2)C[C@H](C)N1C(=O)Cc1cccc(-c2ccccc2)c1 [Compound 234, 4-(((3R,5S)-4-(2-([1,1′-biphenyl]-3-yl)acetyl)-3,5-dimethylpiperazin-1-yl)methyl)-N-hydroxybenzamide]	8.9	17	512
C[C@@H]1CN(Cc2ccc(C(=O)NO)cc2)C[C@H](C)N1C(=O)c1cccc(-c2ccco2)c1 [Compound 242, 4-(((3R,5S)-4-(3-(furan-2-yl)benzoyl)-3,5-dimethylpiperazin-1-yl)methyl)-N-hydroxybenzamide]	2.4	24	98
C[C@@H]1CN(Cc2ccc(C(=O)NO)cc2)C[C@H](C)N1C(=O)c1cccc(-c2ccoc2)c1 [Compound 243, 4-(((3R,5S)-4-(3-(furan-3-yl)benzoyl)-3,5-dimethylpiperazin-1-yl)methyl)-N-hydroxybenzamide]	3	40	74
C[C@@H]1CN(Cc2ccc(C(=O)NO)cc2)C[C@H](C)N1C(=O)c1cccc(C2=CCOCC2)c1 [Compound 244, 4-(((3R,5S)-4-(3-(3,6-dihydro-2H-pyran-4-yl)benzoyl)-3,5-dimethylpiperazin-1-yl)methyl)-N-hydroxybenzamide]	3.4	35	97
C[C@@H]1CN(Cc2ccc(C(=O)NO)cc2)C[C@H](C)N1C(=O)c1cccc(-c2ccncc2)c1 [Compound 245, 4-(((3R,5S)-3,5-dimethyl-4-(3-(pyridin-4-yl)benzoyl)piperazin-1-yl)methyl)-N-hydroxybenzamide]	3.6	31	116
C[C@@H]1CN(Cc2ccc(C(=O)NO)cc2)C[C@H](C)N1C(=O)c1cccc(-c2cccnc2)c1 [Compound 246, 4-(((3R,5S)-3,5-dimethyl-4-(3-(pyridin-3-yl)benzoyl)piperazin-1-yl)methyl)-N-hydroxybenzamide]	3.4	26	129
C[C@@H]1CN(Cc2ccc(C(=O)NO)cc2)C[C@H](C)N1C(=O)c1cccc(C2=CCC(C)(C)CC2)c1 [Compound 247, 4-(((3R,5S)-4-(4′,4′-dimethyl-2′,3′,4′,5′-tetrahydro-[1,1′-biphenyl]-3-carbonyl)-3,5-dimethylpiperazin-1-yl)methyl)-N-hydroxybenzamide]	13.3	30	441
C[C@@H]1CN(Cc2ccc(C(=O)NO)cc2)C[C@@H](C)N1Cc1ccccc1 [Compound 248, 4-(((3R,5R)-4-benzyl-3,5-dimethylpiperazin-1-yl)methyl)-N-hydroxybenzamide]	8.5	96	89
C[C@@H]1CN(Cc2ccc(C(=O)NO)cc2)C[C@@H](C)N1C(=O)c1ccco1 [Compound 249, 4-(((3R,5R)-4-(furan-2-carbonyl)-3,5-dimethylpiperazin-1-yl)methyl)-N-hydroxybenzamide]	15.6	130	120
C[C@@H]1CN(C(=O)Cc2cccc(-c3ccccc3)c2)C[C@H](C)N1Cc1ccc(C(=O)NO)cc1 [Compound 250, 4-(((2S,6R)-4-(2-([1,1′-biphenyl]-3-yl)acetyl)-2,6-dimethylpiperazin-1-yl)methyl)-N-hydroxybenzamide]	9.5	57	168
C[C@@H]1CN(C(=O)Cc2cccc(-c3ccncc3)c2)C[C@H](C)N1Cc1ccc(C(=O)NO)cc1 [Compound 251, 4-(((2S,6R)-2,6-dimethyl-4-(2-(3-(pyridin-4-yl)phenyl)acetyl)piperazin-1-yl)methyl)-N-hydroxybenzamide]	13.7	57	242
C[C@@H]1CN(C(=O)Cc2cccc(C3=CCOCC3)c2)C[C@H](C)N1Cc1ccc(C(=O)NO)cc1 [Compound 252, 4-(((2S,6R)-4-(2-(3-(3,6-dihydro-2H-pyran-4-yl)phenyl)acetyl)-2,6-dimethylpiperazin-1-yl)methyl)-N-hydroxybenzamide]	17.5	79	221
C[C@@H]1CN(C(=O)Cc2cccc(C3=CCC(C)(C)CC3)c2)C[C@H](C)N1Cc1ccc(C(=O)NO)cc1 [Compound 253, 4-(((2S,6R)-4-(2-(4′,4′-dimethyl-2′,3′,4′,5′-tetrahydro-[1,1′-biphenyl]-3-yl)acetyl)-2,6-dimethylpiperazin-1-yl)methyl)-N-hydroxybenzamide]	22.6	15	1540
C[C@@H]1CN(Cc2ccc(C(=O)NO)cc2)C[C@H](C)N1Cc1cccc(-n2cccc2)c1 [Compound 255, 4-(((3R,5S)-4-(3-(1H-pyrrol-1-yl)benzyl)-3,5-dimethylpiperazin-1-yl)methyl)-N-hydroxybenzamide]	8.5	354	24
C[C@@H]1CN(Cc2cccc(-n3cccc3)c2)C[C@H](C)N1Cc1ccc(C(=O)NO)cc1 [Compound 256, 4-(((2S,6R)-4-(3-(1H-pyrrol-1-yl)benzyl)-2,6-dimethylpiperazin-1-yl)methyl)-N-hydroxybenzamide]	4.6	15	303
C[C@@H]1CN(C(=O)c2cccc(-c3ccco3)c2)C[C@H](C)N1Cc1ccc(C(=O)NO)cc1 [Compound 257, 4-(((2S,6R)-4-(3-(furan-2-yl)benzoyl)-2,6-dimethylpiperazin-1-yl)methyl)-N-hydroxybenzamide]	1.6	6	255
